Results reported in patent publication US20200087703A1, “METABOLIC LABELING OF BACTERIAL TEICHOIC ACIDS CELL WALL” (priority 2017, published 2020).

Experiments:
S. pneumoniae R800 = conditions: C-medium without choline, 30 μM
Experimental: FIG. 15. […] In C-medium without choline (*), with 30 μM azidocholine (†) or choline (‡).
(§1) The choice was oriented towards a rapid click reaction involving an azide function carried by the choline and the strained dibenzoannulated cyclooctyne DIBO carrying the fluorophore. […] For subsequent click reaction, fluorescent DIBO offers a compromise between stability and rapidity with a choice of commercially available fluorophores.

S. pneumoniae [1] = conditions: grown 4 hours with 30 μM, then 25 μM DIBO Alexa Fluor 5 min
From the text: as §1

S. pneumoniae [2] = conditions: 15 seconds incubation, then DIBO-ATTOS 488 for 5 min
Experimental: The reaction is stopped by three washes with 1 ml of cold PBS. The bacterium is then re-suspended in 20-40 μl of PBS and observed immediately by fluorescence microscopy.

S. pneumoniae live cells = experiment: TA metabolic labeling on pneumococcal live cells (CuAAC with coumarin, fluorescence microscopy); type: cell-based, Streptococcus pneumoniae; conditions: copper 50 μM, THPTA, 30 min, five independent experiments
From the text: FIG. 10. TA metabolic labeling on pneumococcal live cells. A. Detection of metabolically incorporated propargyl-choline in S. pneumoniae living cells after bioorthogonal reaction. (i) and (ii) refer to two different stages of division. Membrane and septal TA labeling are indicated by black and white arrow heads, respectively. Phase contrast and fluorescence images in the presence (left panel) or absence of propargyl-choline (right panel) are shown. Scale bar=1 μm. B. Electron micrographs of pneumococcal cells at division stages (i) and (ii) as shown in A. C.
For bioorthogonal reactions, 10 ml of Cmed-choline and 10 ml of C-medium containing 4 μg/ml of propargyl-choline were inoculated at OD600 nm of 0.05 with aliquots of cells conditioned in C-medium as described above. The growth was pursued at 37° C.-5% CO2 for 3 hours until OD600 nm of 0.2-0.25 was reached, which corresponds to the early exponential growth phase. […]
Pneumococcal cells were transferred to microscope slides and observed using an Olympus BX61 optical microscope equipped with a UPFLN 100× O-2PH/1.3 objective and a QImaging Retiga-SRV 1394 cooled charge-coupled device camera. […] The cells are then sorted by their length value and the fluorescence values are plotted as a heat map. […]

Molecule	ability to replace choline for growth (S. pneumoniae R800)	cell surface labeling pattern (S. pneumoniae [1])	labeling quality after short pulse (S. pneumoniae [2])	fluorescent signal ratio propargyl-choline/choline (S. pneumoniae live cells)
1-azidoethyl-choline	efficiently replaced choline to allow growth	Uniform cell surface labeling	high-quality labeling	
C#CC[N+](C)(C)CCO [propargyl-choline]				4.28±0.8
